Data from patent US20230110378A1, “MONOBACTAM COMPOUND AND USE THEREOF” (EVOPOINT BIOSCIENCES CO., LTD., priority 2019, published 2023).
In brackets after ≈: the same amount, converted by molar mass.

Tests used:
Test in all cases: Minimum inhibitory concentration (broth microdilution, CLSI)
Assay type in all cases: cell-based
[1] = test system: Pseudomonas aeruginosa HDBPA 5679; conditions: HDBPA5679
Protocol: (§1) 103 bacterial strains used for the minimum inhibitory concentration test were frozen in a −80° C. ULT freezer and thawed 2 days before use. A small amount of frozen microorganism bacteria were scraped using a sterile inoculating loop, streaked onto a suitable solid culture dish for inoculation, and then cultured for about 20 h at 35 t 2° C. in a normal incubator. • Proteus mirabilis HDBPM 40: MA, normal atmospheric environment • The remaining 102 strains of bacteria: TSA, normal atmospheric environment
(§2) 5-10 colonies with similar morphology were picked from the culture dish using a sterile inoculating loop and then re-streaked onto a corresponding solid culture dish. Then the dish was incubated in a normal incubator at 35 t 2° C. for about 20 h.
(§3) 5-10 single microbial colonies were picked from the solid culture dish, resuspended in 500 μL of sterile normal saline (0.9% NaCl), and adjusted to an OD600 of about 0.15 with a spectrophotometer.
(§4) The bacteria were then diluted 300-fold with 1.02×CAMHB to an inoculation concentration of 2×10^5 CFU/mL.
(§5) • There were a total of 3 assay plate patterns, one of which was used for each assay. • 8 rows of the assay plate (rows A-H) were for 8 test compounds, respectively. The highest test concentration of the compounds was 16, 32 or 64 μg/mL, and each compound was diluted 2-fold. • Growth control (GC): a medium containing microbial inoculum (1.02×CAMHB) and dimethylsulfoxide (DMSO) but no compound.
(§6) The test and reference compounds were dissolved in DMSO or H2O to prepare 6.4 mg/mL stock solutions. The stock solutions were diluted to prepare standby solutions with certain concentrations, and the volumes of the standby solutions were determined according to the experimental design. Corresponding volumes of the standby solutions were transferred to the starting wells of a dilution plate (A1-H1), and half the starting-well volume of DMSO to the other wells. Each compound was diluted 2-fold sequentially from column 1 to column 11 (e.g., transferring 30 μL of DMSO to columns 2-12 first, then pipetting 30 μL of the compounds from column 1 to column 2 and mixing them well, then pipetting 30 μL of the compounds from column 2 to column 3 and mixing them well, then pipetting 30 μL of the compounds from column 3 to column 4 and mixing them well, and so on to column 11).
(§7) 1 or 2 μL of the compounds and DMSO were transferred from the compound plate to corresponding wells of the assay plates.
(§8) 98 μL of corresponding bacterial inocula were added to the assay plates.
(§9) After addition, the assay plates were covered with sterile covers. The mixtures in the assay plates were centrifuged in a centrifuge at 800 rpm for 30 s, mixed well on a microplate shaker at 400 rpm for 1 min, and incubated in a normal incubator at 35 t 2° C. for 20-24 h.
(§10) The assay plates were placed on a plate reading device, and the speculum was adjusted to observe and record the growth condition of bacteria in each well. In the mean time, each assay plate was photographed with QCount system.
(§11) The minimum inhibitory concentration of each compound was recorded by reference to guidelines from the Clinical and Laboratory Standards Institute.
(§12) The minimum inhibitory concentrations of the compounds against experimental strains were tested in this study by reference to the medium microdilution method as indicated by the Clinical and Laboratory Standards Institute. Compounds were diluted two-fold in 96-well plates from the highest detection concentration of 16, 32 or 64 μg/mL. The bacterial inocula in the assay plates were thawed from corresponding medium plates and diluted in 1.02×CAMHB, while growth controls (GC wells) were set up in the assay plates. The minimum inhibitory concentration of each compound against different bacteria was observed and recorded after the assay plates were incubated in a normal incubator at 35 t 2° C. for about 20 h. The minimum inhibitory concentration values for the different compounds are listed in the list below.

[2] = test system: Proteus mirabilis HDBPM 40; conditions: HDBPM40
Protocol: as §1, §2, §3, §4, §5, §6, §7, §8, §9, §10, §11, §12

[3] = test system: Escherichia coli HDBEC 30008; conditions: HDBEC30008
Protocol: as §1, §2, §3, §4, §5, §6, §7, §8, §9, §10, §11, §12

[4] = test system: Enterobacter cloacae HDBECL 30030; conditions: HDBECL30030
Protocol: as §1, §2, §3, §4, §5, §6, §7, §8, §9, §10, §11, §12

[5] = test system: Klebsiella pneumoniae HDBKP 9249; conditions: HDBKP9249
Protocol: as §1, §2, §3, §4, §5, §6, §7, §8, §9, §10, §11, §12

[6] = test system: Escherichia coli HDBEC 30016; conditions: HDBEC30016
Protocol: as §1, §2, §3, §4, §5, §6, §7, §8, §9, §10, §11, §12

[7] = test system: Escherichia coli HDBEC 30048; conditions: HDBEC30048
Protocol: as §1, §2, §3, §4, §5, §6, §7, §8, §9, §10, §11, §12

[8] = test system: Klebsiella pneumoniae HDBKP 9153; conditions: HDBKP9153
Protocol: as §1, §2, §3, §4, §5, §6, §7, §8, §9, §10, §11, §12

[9] = test system: Klebsiella pneumoniae HDBKP 30006; conditions: HDBKP30006
Protocol: as §1, §2, §3, §4, §5, §6, §7, §8, §9, §10, §11, §12

SMILES	MIC [1] [µg/mL]	MIC [2] [µg/mL]	MIC [3] [µg/mL]	MIC [4] [µg/mL]	MIC [5] [µg/mL]	MIC [6] [µg/mL]	MIC [7] [µg/mL]	MIC [8] [µg/mL]	MIC [9] [µg/mL]
CC(C)(O/N=C(\C(=O)N[C@H]1C(=O)N(S(=O)(=O)O)[C@H]1CNC(=O)c1cc([C@@H]2CC[N+](C)(CCNC(=O)c3ccc(O)c(O)c3Cl)C2)no1)c1csc(N)n1)C(=O)O (stereo partly drawn) [Compound I-20]	8 to 16	< 4	< 4	< 4	> 16	> 16	8 to 16	8 to 16	> 16
C[N+]1(CCNC(=O)c2ccc(O)c(O)c2Cl)CC[C@@H](c2cc(C(=O)NC[C@@H]3[C@H](NC(=O)/C(=N\OC4(C(=O)O)CC4)c4csc(N)n4)C(=O)N3S(=O)(=O)O)on2)C1 (stereo partly drawn) [Compound I-24]	< 4	< 4	< 4	< 4	< 4	8 to 16	< 4	< 4	8 to 16
Nc1nc(/C(=N/OC2(C(=O)O)CC2)C(=O)N[C@@H]2C(=O)N(S(=O)(=O)O)[C@@H]2CNC(=O)c2cc([C@H]3CCN(C(=O)c4cc(=O)c(O)cn4O)C3)no2)cs1 [Compound I-25]	< 4	< 4	< 4	< 4	4 to 8 (≈ 5.22 to 10.4 µM)	4 to 8 (≈ 5.22 to 10.4 µM)	< 4	< 4	> 16
CC(C)(O/N=C(\C(=O)N[C@H]1C(=O)N(S(=O)(=O)O)[C@H]1CNC(=O)c1cc([C@@H]2CCN(C(=O)c3cc(=O)c(O)cn3O)C2)no1)c1nc(N)sc1Cl)C(=O)O [Compound I-26]	> 16	4 to 8 (≈ 4.99 to 9.97 µM)	> 16	> 16	> 16	> 16	> 16	> 16	> 16
CC(C)(O/N=C(\C(=O)N[C@@H]1C(=O)N(S(=O)(=O)O)[C@@H]1CNC(=O)c1cnc([C@@H]2CC[N+](C)(CCNC(=O)c3ccc(O)c(O)c3Cl)C2)s1)c1csc(N)n1)C(=O)O (stereo partly drawn) [Compound I-34]	< 4	< 4	< 4	< 4	8 to 16	< 4	< 4	< 4	4 to 8
CC(C)(O/N=C(\C(=O)N[C@@H]1C(=O)N(S(=O)(=O)O)[C@@H]1CNC(=O)c1cc([C@@H]2CCN(CCNc3ccc(O)c(O)c3Cl)C2)no1)c1csc(N)n1)C(=O)O [Compound I-36]	< 4	< 4	< 4	< 4	< 4	4 to 8 (≈ 5 to 10 µM)	< 4	< 4	8 to 16 (≈ 10 to 20 µM)

The remaining lines, values ahead:

MIC [1] [µg/mL]	MIC [2] [µg/mL]	MIC [3] [µg/mL]	MIC [4] [µg/mL]	MIC [5] [µg/mL]	MIC [6] [µg/mL]	MIC [7] [µg/mL]	MIC [8] [µg/mL]	MIC [9] [µg/mL]	SMILES
< 4	< 4	< 4	< 4	> 16	> 16	< 4	< 4	> 16	CC(C)(O/N=C(\C(=O)N[C@H]1C(=O)N(S(=O)(=O)O)[C@H]1CNC(=O)c1cc([C@@H]2CCN(C(=O)c3cc(=O)c(O)cn3O)C2)no1)c1csc(N)n1)C(=O)O [Compound I-21]
< 4	< 4	< 4	< 4	4 to 8 (≈ 5.22 to 10.4 µM)	4 to 8 (≈ 5.22 to 10.4 µM)	< 4	< 4	> 16	Nc1nc(/C(=N/OC2(C(=O)O)CC2)C(=O)N[C@@H]2C(=O)N(S(=O)(=O)O)[C@@H]2CNC(=O)c2cc([C@@H]3CCN(C(=O)c4cc(=O)c(O)cn4O)C3)no2)cs1 [Compound I-22]
< 4	< 4	< 4	< 4	< 4	< 4	< 4	< 4	8 to 16 (≈ 10.2 to 20.4 µM)	Nc1nc(/C(=N/OC2(C(=O)O)CC2)C(=O)N[C@@H]2C(=O)N(S(=O)(=O)O)[C@@H]2CNC(=O)c2cc([C@@H]3CCN(C(=O)c4ccc(O)c(O)c4Cl)C3)no2)cs1 [Compound I-23]
